Where “and” joins values, the source holds several entries; their conditions need not be identical. Equal values may be shown once.
System: NCI-H226 complex tumor spheroids, viability
Test: Anticancer human tumor NCI-H226 cell line growth inhibition;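 further: spheroids exposed to compound for 7 days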;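 on viability, T/C: 100% = DMSO vehicle control viability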
Conditions: for viability, T/C: stronger effect = lower value
Outline: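 Complex tumor spheroids combined malignant cells with endothelial cells and mesenchymal stem cells. DNA-damaging drugs and DNA repair inhibitors were tested alone and in combination, at half-log dilutions down from clinical Cmax (top 10 microM if Cmax unknown), 0.25% DMSO final.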

[1] = curve of first compound, second compound 30 pM
[2] = curve of first compound, second compound 94.9 pM
[3] = curve of first compound, second compound 0.0003 µM
[4] = curve of first compound, second compound 0.000949 µM
[5] = curve of first compound, second compound 0.003 µM
[6] = second compound 30 pM, first compound 0.0316 µM
[7] = second compound 30 pM, first compound 0.1 µM
[8] = second compound 30 pM, first compound 0.316 µM
[9] = second compound 30 pM, first compound 1 µM
[10] = second compound 30 pM, first compound 3.16 µM
[11] = second compound 30 pM, first compound 10 µM
[12] = second compound 94.9 pM, first compound 0.0316 µM
[13] = second compound 94.9 pM, first compound 0.1 µM
[14] = second compound 94.9 pM, first compound 0.316 µM
[15] = second compound 94.9 pM, first compound 1 µM
[16] = second compound 94.9 pM, first compound 3.16 µM
[17] = second compound 94.9 pM, first compound 10 µM
[18] = second compound 0.0003 µM, first compound 0.0316 µM
[19] = second compound 0.0003 µM, first compound 0.1 µM
[20] = second compound 0.0003 µM, first compound 0.316 µM
[21] = second compound 0.0003 µM, first compound 1 µM
[22] = second compound 0.0003 µM, first compound 3.16 µM
[23] = second compound 0.0003 µM, first compound 10 µM
[24] = second compound 0.000949 µM, first compound 0.0316 µM
[25] = second compound 0.000949 µM, first compound 0.1 µM
[26] = second compound 0.000949 µM, first compound 0.316 µM
[27] = second compound 0.000949 µM, first compound 1 µM
[28] = second compound 0.000949 µM, first compound 3.16 µM
[29] = second compound 0.000949 µM, first compound 10 µM
[30] = second compound 0.003 µM, first compound 0.0316 µM
[31] = second compound 0.003 µM, first compound 0.1 µM
[32] = second compound 0.003 µM, first compound 0.316 µM
[33] = second compound 0.003 µM, first compound 1 µM
[34] = second compound 0.003 µM, first compound 3.16 µM
[35] = second compound 0.003 µM, first compound 10 µM

SMILES: COc1ccc([C@@H](O)c2cc(-c3ncnc4cc(N5CCOCC5)ccc34)c(F)cc2Cl)nn1 + COc1cc2c(cc1O)CCNC21CSC2c3c(OC(C)=O)c(C)c4c(c3C(COC1=O)N1C(O)C3Cc5cc(C)c(OC)c(O)c5C(C21)N3C)OCO4
- IC50 [1]: 6.37 µM
- IC50 [2]: 4.02 µM
- IC50 [3]: 4.26 µM
- IC50 [4]: 0.756 µM
- IC50 [5]: < 0.0316 µM
- viability, T/C [6]: 115%
- viability, T/C [7]: 108%
- viability, T/C [8]: 81.2%
- viability, T/C [9]: 80.5%
- viability, T/C [10]: 58%
- viability, T/C [11]: 43.6%
- viability, T/C [12]: 99.8%
- viability, T/C [13]: 105%
- viability, T/C [14]: 106%
- viability, T/C [15]: 76.5%
- viability, T/C [16]: 54.6%
- viability, T/C [17]: 43.5%
- viability, T/C [18]: 126%
- viability, T/C [19]: 130%
- viability, T/C [20]: 122%
- viability, T/C [21]: 95.4%
- viability, T/C [22]: 54.7%
- viability, T/C [23]: 37.5%
- viability, T/C [24]: 107%
- viability, T/C [25]: 112%
- viability, T/C [26]: 93.6%
- viability, T/C [27]: 36.4%
- viability, T/C [28]: 0.51%
- viability, T/C [29]: 0.24%
- viability, T/C [30]: 1.01%
- viability, T/C [31]: 0.79%
- viability, T/C [32]: 0.98%
- viability, T/C [33]: 0.69%
- viability, T/C [34]: 0.74%
- viability, T/C [35]: 1.08%

SMILES: O=C(c1cc(Cc2n[nH]c(=O)c3ccccc23)ccc1F)N1CCN(C(=O)C2CC2)CC1
- viability, T/C (compound 0.0949 µM): 98.6% and 105% and 103%
- viability, T/C (compound 0.3 µM): 97.1% and 100% and 96.8%
- viability, T/C (compound 0.949 µM): 104% (2×) and 101%
- viability, T/C (compound 3 µM): 98.5% and 99.3% and 93.9%
- viability, T/C (compound 9.49 µM): 96.9% and 87.4% and 106%
- viability, T/C (compound 30 µM): 92.1% and 79% and 86.7%
- IC50 (curve of compound): > 30 µM

SMILES: Cc1cc(C)c(CNC(=O)c2cc(-c3ccc(CN4CCOCC4)cc3)cc3c2cnn3C2CCCC2)c(=O)[nH]1 + CC[C@@]1(O)C(=O)OCc2c1cc1n(c2=O)Cc2cc3c(CN(C)C)c(O)ccc3nc2-1
- IC50 [5]: > 10 µM
- IC50 (curve of first compound, second compound 0.00949 µM): > 10 µM
- IC50 (curve of first compound, second compound 0.03 µM): > 10 µM
- IC50 (curve of first compound, second compound 0.0949 µM): > 10 µM
- IC50 (curve of first compound, second compound 0.3 µM): > 10 µM
- viability, T/C [30]: 101%
- viability, T/C [31]: 96.8%
- viability, T/C [32]: 98.3%
- viability, T/C [33]: 85.3%
- viability, T/C [34]: 95.7%
- viability, T/C [35]: 108%
- viability, T/C (second compound 0.00949 µM, first compound 0.0316 µM): 87.2%
- viability, T/C (second compound 0.00949 µM, first compound 0.1 µM): 88.8%
- viability, T/C (second compound 0.00949 µM, first compound 0.316 µM): 92.4%
- viability, T/C (second compound 0.00949 µM, first compound 1 µM): 82.9%
- viability, T/C (second compound 0.00949 µM, first compound 3.16 µM): 78.6%
- viability, T/C (second compound 0.00949 µM, first compound 10 µM): 96.3%
- viability, T/C (second compound 0.03 µM, first compound 0.0316 µM): 91.8%
- viability, T/C (second compound 0.03 µM, first compound 0.1 µM): 78.3%
- viability, T/C (second compound 0.03 µM, first compound 0.316 µM): 87.6%
- viability, T/C (second compound 0.03 µM, first compound 1 µM): 88.9%
- viability, T/C (second compound 0.03 µM, first compound 3.16 µM): 79.7%
- viability, T/C (second compound 0.03 µM, first compound 10 µM): 95.3%
- viability, T/C (second compound 0.0949 µM, first compound 0.0316 µM): 70.7%
- viability, T/C (second compound 0.0949 µM, first compound 0.1 µM): 72.9%
- viability, T/C (second compound 0.0949 µM, first compound 0.316 µM): 71%
- viability, T/C (second compound 0.0949 µM, first compound 1 µM): 77.5%
- viability, T/C (second compound 0.0949 µM, first compound 3.16 µM): 76.1%
- viability, T/C (second compound 0.0949 µM, first compound 10 µM): 106%
- viability, T/C (second compound 0.3 µM, first compound 0.0316 µM): 64%
- viability, T/C (second compound 0.3 µM, first compound 0.1 µM): 62.4%
- viability, T/C (second compound 0.3 µM, first compound 0.316 µM): 67%
- viability, T/C (second compound 0.3 µM, first compound 1 µM): 68.5%
- viability, T/C (second compound 0.3 µM, first compound 3.16 µM): 79.8%
- viability, T/C (second compound 0.3 µM, first compound 10 µM): 95.2%

SMILES: CC(C)n1c(=O)n(C)c2cnc3cc(F)c(-c4ccc(OCCCN5CCCCC5)nc4)cc3c21
- viability, T/C (compound 0.0316 µM): 99.6% and 101% and 93.1%
- viability, T/C (compound 0.1 µM): 103% and 96.9% and 104%
- viability, T/C (compound 0.316 µM): 103% and 112% and 102%
- viability, T/C (compound 1 µM): 111% and 98% and 84.2%
- viability, T/C (compound 3.16 µM): 107% and 97.5% and 102%
- IC50 (curve of compound): > 10 µM and 5.69 µM and 7.57 µM

SMILES: CC1COCCN1c1cc(-c2ccnn2C)c2ccnc(-c3ccn[nH]3)c2n1 (stereo not drawn) + COc1cc2c(cc1O)CCNC21CSC2c3c(OC(C)=O)c(C)c4c(c3C(COC1=O)N1C(O)C3Cc5cc(C)c(OC)c(O)c5C(C21)N3C)OCO4
- IC50 [1]: 3.12 µM
- IC50 [2]: > 10 µM
- IC50 [3]: > 10 µM
- IC50 [4]: 3.65 µM
- IC50 [5]: < 0.0316 µM
- viability, T/C [6]: 120%
- viability, T/C [7]: 108%
- viability, T/C [8]: 89.1%
- viability, T/C [9]: 61.3%
- viability, T/C [10]: 50.9%
- viability, T/C [11]: 45.2%
- viability, T/C [12]: 106%
- viability, T/C [13]: 112%
- viability, T/C [14]: 80%
- viability, T/C [15]: 62.1%
- viability, T/C [16]: 53.5%
- viability, T/C [17]: 50.4%
- viability, T/C [18]: 109%
- viability, T/C [19]: 108%
- viability, T/C [20]: 98.9%
- viability, T/C [21]: 71.3%
- viability, T/C [22]: 57.8%
- viability, T/C [23]: 56.7%
- viability, T/C [24]: 126%
- viability, T/C [25]: 102%
- viability, T/C [26]: 90.6%
- viability, T/C [27]: 58.8%
- viability, T/C [28]: 53%
- viability, T/C [29]: 43.5%
- viability, T/C [30]: 1.51%
- viability, T/C [31]: 1.41%
- viability, T/C [32]: 1.32%
- viability, T/C [33]: 0.82%
- viability, T/C [34]: 0.74%
- viability, T/C [35]: 0.49%

SMILES: CNCc1ccc(-c2cc(-c3nc(-c4ccc(S(=O)(=O)C(C)C)cc4)cnc3N)on2)cc1 + Cn1nnc2c(C(N)=O)ncn2c1=O
- IC50 (curve of first compound, second compound 1 µM): 0.756 µM
- IC50 (curve of first compound, second compound 3.16 µM): 0.717 µM
- IC50 (curve of first compound, second compound 10 µM): 0.755 µM
- IC50 (curve of first compound, second compound 31.6 µM): 1.03 µM
- IC50 (curve of first compound, second compound 100 µM): 1.37 µM
- viability, T/C (second compound 1 µM, first compound 0.00949 µM): 110%
- viability, T/C (second compound 1 µM, first compound 0.03 µM): 125%
- viability, T/C (second compound 1 µM, first compound 0.0949 µM): 138%
- viability, T/C (second compound 1 µM, first compound 0.3 µM): 140%
- viability, T/C (second compound 1 µM, first compound 0.949 µM): 30.7%
- viability, T/C (second compound 1 µM, first compound 3 µM): 0.26%
- viability, T/C (second compound 3.16 µM, first compound 0.00949 µM): 96.1%
- viability, T/C (second compound 3.16 µM, first compound 0.03 µM): 119%
- viability, T/C (second compound 3.16 µM, first compound 0.0949 µM): 127%
- viability, T/C (second compound 3.16 µM, first compound 0.3 µM): 134%
- viability, T/C (second compound 3.16 µM, first compound 0.949 µM): 27.6%
- viability, T/C (second compound 3.16 µM, first compound 3 µM): 0.51%
- viability, T/C (second compound 10 µM, first compound 0.00949 µM): 117%
- viability, T/C (second compound 10 µM, first compound 0.03 µM): 117%
- viability, T/C (second compound 10 µM, first compound 0.0949 µM): 131%
- viability, T/C (second compound 10 µM, first compound 0.3 µM): 128%
- viability, T/C (second compound 10 µM, first compound 0.949 µM): 31.8%
- viability, T/C (second compound 10 µM, first compound 3 µM): 0.23%
- viability, T/C (second compound 31.6 µM, first compound 0.00949 µM): 110%
- viability, T/C (second compound 31.6 µM, first compound 0.03 µM): 117%
- viability, T/C (second compound 31.6 µM, first compound 0.0949 µM): 144%
- viability, T/C (second compound 31.6 µM, first compound 0.3 µM): 123%
- viability, T/C (second compound 31.6 µM, first compound 0.949 µM): 53.7%
- viability, T/C (second compound 31.6 µM, first compound 3 µM): 1.75%
- viability, T/C (second compound 100 µM, first compound 0.00949 µM): 119%
- viability, T/C (second compound 100 µM, first compound 0.03 µM): 125%
- viability, T/C (second compound 100 µM, first compound 0.0949 µM): 123%
- viability, T/C (second compound 100 µM, first compound 0.3 µM): 114%
- viability, T/C (second compound 100 µM, first compound 0.949 µM): 73.3%
- viability, T/C (second compound 100 µM, first compound 3 µM): 0.35%

Source: PubChem BioAssay AID1845210 (Molecular Pharmacology Branch, DTP, NCI, 2023)
